From patent US20060281736A1, “Product comprising at least one phosphatase cdc25 inhibitor combined with at least one other anticancer agent” (priority 2003, published 2006)
Each block holds one molecule with its values, some of them ahead of it.

How the values were obtained:
[1] = Stability in the form of a powder; type: physicochemical; conditions: compound and its salts
[2] = In vivo toxicity
[3] = tested on: HT-29 cell line (human colon cancer cells); experiment: Test of cell proliferation of the HT-29 cells (WST1), products individually or in combination; type: cell-based; conditions: Combination 13: Compound B13 (10^−9 M) individually; 120 hours
Protocol: A) Test of Cell Proliferation of the HT-29 Cells
The protocol for the test used to obtain the results shown is described below:
The HT-29 cell line (human colon cancer cells) were acquired from the American Tissue Culture Collection (Rockville, Md., USA).
The HT-29 cells (2000 cells/well) are cultured in 96-well plates. On day 0, these cells are seeded in 90 μl of Dulbecco's modified Eagle medium (Gibco-Brl, Cergy-Pontoise, France) completed with 10% foetal calf serum inactived by heating (Gibco-Brl, Cergy-Pontoise, France), 50000 units/l of penicillin and 50 mg/l streptomycin (Gibco-Brl, Cergy-Pontoise, France), and 2 mM of glutamine (Gibco-Brl, Cergy-Pontoise, France).
The cells were treated simultaneously with concentrations of two products individually or in combination on Day 1 and for 120 hours.
At the end of the of this period (D6), quantification of cell proliferation is evaluated by a colorimetric test based on the cleavage of the tetrazolium salt WST1 by mitochondrial dehydrogenases in living cells leading to the formation of formazan (Boehringer Mannheim, Meylan, France). These tests are carried out at least in duplicate with 4 determinations for each individual product and for each combination tested. This allows determination of the number of living cells at the end of each treatment.

[4] = tested on: DU145 (human prostate cancer cells); experiment: Antiproliferative activity on DU145 cells (WST1); type: cell-based; conditions: DU-145, 96 hours treatment, read-out: IC50 on the cell proliferation of DU-145 lines
Protocol: (§1) ii) Characterization of the Antiproliferative Activity:
By way of example, the effect of a treatment on two human cell lines Mia-Paca2 and DU145 with the compounds of the examples described previously will be studied. The cell lines DU145 (human prostate cancer cells) and Mia-PaCa2 (human pancreas cancer cells) were acquired from the American Tissue Culture Collection (Rockville, Md., USA). The cells placed in 80 μl of Dulbecco's Modified Eagle's medium (Gibco-Brl, Cergy-Pontoise, France) completed with 10% foetal calf serum inactivated by heating (Gibco-Brl, Cergy-Pontoise, France), 50,000 units/l of penicillin and 50 mg/l of streptomycin (Gibco-Brl, Cergy-Pontoise, France), and 2 mM of glutamine (Gibco-Brl, Cergy-Pontoise, France) were seeded on a 96-well plate on day 0. The cells were treated on day 1 for 96 hours with increasing concentrations of each of the compounds to be tested up to 10 μM. At the end of this period, quantification of cell proliferation is evaluated by a colorimetric test based on the cleavage of the tetrazolium salt WST1 by the mitochondrial dehydrogenases in viable cells leading to the formation of formazan (Boehringer Mannheim, Meylan, France). These tests are carried out in duplicate with 8 determinations per concentration tested. […]

[5] = tested on: Mia-PaCa2 (human pancreas cancer cells); experiment: Antiproliferative activity on Mia-Paca2 cells (WST1); type: cell-based; conditions: MIA PaCa-2, 96 hours treatment, read-out: IC50 on the cell proliferation of Mia-Paca2 lines
Protocol: as §1
By way of example, the effect of a treatment on two human cell lines Mia-Paca2 and DU145 with the compounds of the examples described previously will be studied. The cell lines DU145 (human prostate cancer cells) and Mia-PaCa2 (human pancreas cancer cells) were acquired from the American Tissue Culture Collection (Rockville, Md., USA). The cells placed in 80 μl of Dulbecco's Modified Eagle's medium (Gibco-Brl, Cergy-Pontoise, France) completed with 10% foetal calf serum inactivated by heating (Gibco-Brl, Cergy-Pontoise, France), 50,000 units/l of penicillin and 50 mg/l of streptomycin (Gibco-Brl, Cergy-Pontoise, France), and 2 mM of glutamine (Gibco-Brl, Cergy-Pontoise, France) were seeded on a 96-well plate on day 0. The cells were treated on day 1 for 96 hours with increasing concentrations of each of the compounds to be tested up to 10 μM. At the end of this period, quantification of cell proliferation is evaluated by a colorimetric test based on the cleavage of the tetrazolium salt WST1 by the mitochondrial dehydrogenases in viable cells leading to the formation of formazan (Boehringer Mannheim, Meylan, France). These tests are carried out in duplicate with 8 determinations per concentration tested. For each compound to be tested, the values included in the linear part of the sigmoid were retained for a linear regression analysis and used to estimate the inhibitory concentration IC50. The products are solubilized in dimethylsulphoxide (DMSO) at 10^−2 M and finally used in culture with 0.1% DMSO.

stability in the form of a powder [1]: particularly stable
Compound: N[C@@H](CSSC[C@H](N)C(=O)N1CCn2cc(-c3ccccc3)nc2[C@@H]1CC1CCCCC1)C(=O)N1CCn2cc(-c3ccccc3)nc2[C@@H]1CC1CCCCC1 [(1R)-1-[({(2R)-2-amino-3-[(8S)-8-(cyclohexylmethyl)-2-phenyl-5,6-dihydroimidazo[1,2-a]pyrazin-7(8H)-yl]-3-oxopropyl}dithio)methyl]-2-[(8)-8-(cyclohexylmethyl)-2-phenyl-5,6-dihydroimidazo[1,2-a]pyrazin-7(8H)-yl]-2-oxoethylamine]
in vivo toxicity data [2]: excellent

Compound: CC[C@@]1(O)CC(=O)OCc2c1cc1n(c2=O)Cc2c-1nc1cc(Cl)c(C)cc1c2CN1CCC(C)CC1.Cl [Compound B13, (+)-9-chloro-5-ethyl-5-hydroxy-10-methyl-12-(4-methylpiperidinomethyl)-4,5,13,15-tetrahydro-1H,3H-oxepino[3′,4′:6,7]indolizino[1,2-c]quinoline-3,15-dione hydrochloride]
% of surviving cells [3]: 91%

IC50 [4]: ≤ 10 µM | IC50 [5]: ≤ 10 µM
Compound: CCCNC1=CC(=O)c2sc(C)nc2C1=O [Example 11, 2-methyl-5-(propylamino)-1,3-benzothiazole-4,7-dione]

IC50 [5]: ≤ 10 µM | melting point: 135 °C
Compound: CCc1nc2c(o1)C(=O)C(C)=C(NCCN(C)C)C2=O [Example 55, 5-{[2-(dimethylamino)ethyl]amino}-2-ethyl-6-methyl-1,3-benzoxazole-4,7-dione]
